According to US5506217A, “Phosphonates as anti-cancer agents” (The University of British Columbia, priority 1994, dated 1996):

Columns and labels:
[1] = system: DHL4, a human B cell lymphoma; test: colonogenic cell survival assay; format: cell-based; conditions: 120 h, read-out: Colonies formed after 5-days (% of control)
Protocol: (§1) Inhibition of colony formation in soft agar medium (colonogenic cell survival assay) is a more rigorous and direct measurement of cell kill or growth inhibition, and reflects the anti-cancer activity of the test compound. Briefly, tumor cells were cultured in petri dishes in methylcellulose, with or without a phosphonate test compound, and the number of colonies formed during a 5-day incubation period were counted.
(§2) The anti-cancer activity of the phosphonate of the following formula: [drawing 16] against human leukemia and lymphoma was also studied using the colonogenic cell survival assay. DHL4, a human B cell lymphoma; HeL, a human erythroid leukemia: JRT3T3, a human T-cell lymphoma; and KG 1α, a human mycloid leukemia, were evaluated for their sensitivity to the cytotoxic activity of the phosphonate of the above formula (compound VIII).

[2] = system: HeL, a human erythroid leukemia; test: colonogenic cell survival assay; format: cell-based; conditions: 120 h, read-out: Colonies formed after 5-days (% of control)
Protocol: as §1, §2

[3] = system: JRT3T3, a human T-cell lymphoma; test: colonogenic cell survival assay; format: cell-based; conditions: 120 h, read-out: Colonies formed after 5-days (% of control)
Protocol: as §1, §2

[4] = system: KG1α, a human myeloid leukemia; test: colonogenic cell survival assay; format: cell-based; conditions: KG-1a, 120 h, read-out: Colonies formed after 5-days (% of control)
Protocol: as §1, §2

[5] = system: LLC tumor cells (Lewis Lung carcinoma); test: colonogenic cell survival assay; format: cell-based; conditions: Mus musculus, 120 h, read-out: Colonies formed after 5 days (% of control)
Protocol: as §1
Lewis Lung carcinoma (LLC), a cancer cell linc derived from […] of mice, was evaluated for its sensitivity to the cytotoxic activity of phosphonates of the following structure using the colonogenic cell survival assay (described above): [drawing 19]

[6] = system: HT-29 (human colorectal cancer); test: colonogenic cell survival assay; format: cell-based; conditions: 120 h, read-out: Colonies formed (% of control)
Protocol: as §1
(§3) The anti-cancer activity of the phosphonate compound of the formula shown above (compound VIII) was examined in human melanoma and colorectal tumor cell lines using the colonogenic cell survival assay (described above). RPMI-7951 (human melanoma) and HT-29 (human colorectal cancer) tumor cell lines were evaluated for their sensitivity to the cytotoxic activity of the above phosphonate (compound VIII).

[7] = system: RPMI-7951 (human melanoma); test: colonogenic cell survival assay; format: cell-based; conditions: 120 h, read-out: Colonies formed (% of control)
Protocol: as §1, §3

[8] = system: L1210 (B-cell lymphoma) cells; test: survival of CD1 mice injected with L1210 lymphoma cells; format: in vivo; conditions: 10 mg/kg per day IM
Protocol: The effects of phosphonates in a mouse model of lymphoma were also studied. Mice (CD 1) were injected with 1×10^6 L1210 (B-cell lymphoma) cells intraperitoneally. In one group the mice received the phosphonate compound of the following formula at 10 mg/kg per day intramuscularly, while a second group of mice received no treatment: [drawing 18]

[9] = system: human melanoma cell line (RPMI-7951); test: RPMI-7951 melanoma growth and metastasis in nude mice, topical treatment; format: in vivo; conditions: topically twice a day, emulsion of 80 mg/mL; RPMI-7951 intradermal in nude mice
Protocol: Similar studies were also performed with a human melanoma cell line (RPMI-7951) grown in nude mice. Mice injected with RPMI-7951 cell line intradermally developed tumors. When the mice were treated topically, twice a day, with an emulsion of 80 mg/mL of the phosphonate compound of the formula shown above (compound VIII), the growth and metastasis of tumors were retarded by approximately 60%.

B-16/F10 melanoma cells = test: B-16/F10 melanoma metastasis in C57BL/6 mice; format: in vivo; conditions: 10 mg/kg IM (5 days/week for 2 weeks)
Protocol: Highly metastatic B-16/F10 melanoma cells were injected into the tail veins of female C57BL/6 mice (1×10^5 cells per mouse). Treatment of one group of mice with the phosphonate compound of the above formula (compound VIII), dissolved into 0.5mL ethanol, 0.5 mL cremaphor and 9.0 mL phosphate buffered saline, began three days after the tumor cells were injected. lntramuscular injections of 0.2 mL of the phosphonate emulsion (10 mg/kg/day) were given for 5 days per week for 2 weeks. A second group of mice were treated with Adriamycin (10 mg/kg given intravenously on days 0, 4 and 8) as a known anti-cancer drug control group, while a third group of mice received the vehicle emulsion alone. The mice were examined every day for general health, behaviour and body weight. Counts of metastatic melanomic tumor colonies found in the lungs, general observations of metastasis to distant organs and examination of organs (liver, kidneys, lungs and spleen) were taken at autopsy 4 weeks after treatment.

[10] = system: 2008 (human ovarian cancer); test: cytotoxicity IC50 (3H-thymidine uptake, colonogenic cell survival and MTT assays); format: cell-based
Source text: (§4) A combination of ^3 H-Thymidine incorporation assay, colonogenic cell survival assay and MTT assay was used to determine cytotoxicity data of phosphonates in several mouse and human tumor cell lines.

[11] = system: HT29 (human colon cancer); test: as above; format: cell-based; conditions: HT-29
Source text: as §4

[12] = system: MCF-7 (human breast cancer); test: as above; format: cell-based; conditions: MCF7
Source text: as §4

[13] = system: MeWo (human melanoma cancer); test: as above; format: cell-based
Source text: as §4

[14] = system: P388 (mouse monocytic leukemia); test: as above; format: cell-based
Source text: as §4

[15] = system: WEHI-3B (mouse granulocytic leukemia); test: as above; format: cell-based; conditions: WEHI3B
Source text: as §4

## CCCCCCCCCCCCCCCCOCC(CCP(=O)([O-])OCC[N+](C)(C)C)OC (stereo not drawn) [compound VIII]
[1]; 1.25 μM
  activity at 1.25 µM: 76 ± 7%
[1]; 2.5 μM
  activity at 2.5 µM: 61 ± 5%
[1]; 5 μM
  activity at 5 µM: 42 ± 6%
[1]; 10 μM
  activity at 10 µM: 18 ± 4%
[1]; 20 μM
  activity at 20 µM: 5 ± 1%
[1]; 40 μM
  activity at 40 µM: 0%
[2]; 1.25 μM
  activity at 1.25 µM: 91 ± 8%
[2]; 2.5 μM
  activity at 2.5 µM: 72 ± 5%
[2]; 5 μM
  activity at 5 µM: 58 ± 4%
[2]; 10 μM
  activity at 10 µM: 26 ± 5%
[2]; 20 μM
  activity at 20 µM: 12 ± 3%
[2]; 40 μM
  activity at 40 µM: 1 ± 0.5%
[3]; 1.25 μM
  activity at 1.25 µM: 87 ± 6%
[3]; 2.5 μM
  activity at 2.5 µM: 65 ± 7%
[3]; 5 μM
  activity at 5 µM: 34 ± 5%
[3]; 10 μM
  activity at 10 µM: 20 ± 3%
[3]; 20 μM
  activity at 20 µM: 8 ± 2%
[3]; 40 μM
  activity at 40 µM: 3 ± 1%
[4]; 1.25 μM
  activity at 1.25 µM: 78 ± 8%
[4]; 2.5 μM
  activity at 2.5 µM: 56 ± 6%
[4]; 5 μM
  activity at 5 µM: 41 ± 4%
[4]; 10 μM
  activity at 10 µM: 15 ± 3%
[4]; 20 μM
  activity at 20 µM: 7 ± 1%
[4]; 40 μM
  activity at 40 µM: 4 ± 1%
[5]; 1.25 μM
  activity at 1.25 µM: 97 ± 9%
[5]; 2.5 μM
  activity at 2.5 µM: 81 ± 6%
[5]; 5 μM
  activity at 5 µM: 67 ± 5%
[5]; 10 μM
  activity at 10 µM: 53 ± 4%
[5]; 20 μM
  activity at 20 µM: 37 ± 5%
[5]; 40 μM
  activity at 40 µM: 19 ± 6%
[6]; 2.5 μM
  activity at 2.5 µM: 74%
[6]; 5 μM
  activity at 5 µM: 51%
[6]; 10 μM
  activity at 10 µM: 22%
[6]; 20 μM
  activity at 20 µM: 8%
[6]; 40 μM
  activity at 40 µM: 0%
[7]; 2.5 μM
  activity at 2.5 µM: 68%
[7]; 5 μM
  activity at 5 µM: 43%
[7]; 10 μM
  activity at 10 µM: 13%
[7]; 20 μM
  activity at 20 µM: 3%
[7]; 40 μM
  activity at 40 µM: 0%
[8]; day 0 after injection of L1210 cells
  % Survival: 100%
[8]; day 7 after injection of L1210 cells
  % Survival: 100%
[8]; day 8 after injection of L1210 cells
  % Survival: 100%
[8]; day 19 after injection of L1210 cells
  % Survival: 100%
[8]; day 21 after injection of L1210 cells
  % Survival: 100%
[8]; up to 21 days of observation
  deaths among treated animals (in words): None of the phosphonate-treated (compound VIII) animals died
[9]
  retardation of growth and metastasis of tumors: approximately 60%
B-16/F10 melanoma cells
  melanomic metastasis to distant organs at autopsy (in words): no traces of melanomic metastasis to distant organs were evident in five of six animals
B-16/F10 melanoma cells; Mouse 1
  Melanomic tumor colonies found in the lungs at autopsy: 2
B-16/F10 melanoma cells; Mouse 2
  Melanomic tumor colonies found in the lungs at autopsy: 0
B-16/F10 melanoma cells; Mouse 3
  Melanomic tumor colonies found in the lungs at autopsy: 1
B-16/F10 melanoma cells; Mouse 4
  Melanomic tumor colonies found in the lungs at autopsy: 0
B-16/F10 melanoma cells; Mouse 5
  Melanomic tumor colonies found in the lungs at autopsy: 0
B-16/F10 melanoma cells; Mouse 6
  Melanomic tumor colonies found in the lungs at autopsy: 3
[10]
  IC50: 27.8 µM
[11]
  IC50: 9 µM
[12]
  IC50: 35.3 µM
[13]
  IC50: 15.7 µM
[14]
  IC50: 4.5 µM
[15]
  IC50: 2.5 µM
